Columns and labels:
[1] = target: Protein mono-ADP-ribosyltransferase PARP10 (Homo sapiens, UniProt Q53GL7, L926G); assay: Inhibition of PARP-10 L926G mutant (unknown origin) mediated ADP-ribosylation of SRPK2 by fluorescence analysis using 3 uM SRPK2 as a substrate
[2] = target: Poly [ADP-ribose] polymerase 1 (Homo sapiens, UniProt P09874); assay: Inhibition of PARP1 (unknown origin) by fluorescence analysis
[3] = target: T1, Protein mono-ADP-ribosyltransferase PARP10 (Homo sapiens, UniProt Q53GL7); assay: Inhibition of PARP-10 (unknown origin) mediated ADP-ribosylation of SRPK2 by fluorescence analysis using 3 uM SRPK2 as a substrate
T1 sequence (Q53GL7 whole entry): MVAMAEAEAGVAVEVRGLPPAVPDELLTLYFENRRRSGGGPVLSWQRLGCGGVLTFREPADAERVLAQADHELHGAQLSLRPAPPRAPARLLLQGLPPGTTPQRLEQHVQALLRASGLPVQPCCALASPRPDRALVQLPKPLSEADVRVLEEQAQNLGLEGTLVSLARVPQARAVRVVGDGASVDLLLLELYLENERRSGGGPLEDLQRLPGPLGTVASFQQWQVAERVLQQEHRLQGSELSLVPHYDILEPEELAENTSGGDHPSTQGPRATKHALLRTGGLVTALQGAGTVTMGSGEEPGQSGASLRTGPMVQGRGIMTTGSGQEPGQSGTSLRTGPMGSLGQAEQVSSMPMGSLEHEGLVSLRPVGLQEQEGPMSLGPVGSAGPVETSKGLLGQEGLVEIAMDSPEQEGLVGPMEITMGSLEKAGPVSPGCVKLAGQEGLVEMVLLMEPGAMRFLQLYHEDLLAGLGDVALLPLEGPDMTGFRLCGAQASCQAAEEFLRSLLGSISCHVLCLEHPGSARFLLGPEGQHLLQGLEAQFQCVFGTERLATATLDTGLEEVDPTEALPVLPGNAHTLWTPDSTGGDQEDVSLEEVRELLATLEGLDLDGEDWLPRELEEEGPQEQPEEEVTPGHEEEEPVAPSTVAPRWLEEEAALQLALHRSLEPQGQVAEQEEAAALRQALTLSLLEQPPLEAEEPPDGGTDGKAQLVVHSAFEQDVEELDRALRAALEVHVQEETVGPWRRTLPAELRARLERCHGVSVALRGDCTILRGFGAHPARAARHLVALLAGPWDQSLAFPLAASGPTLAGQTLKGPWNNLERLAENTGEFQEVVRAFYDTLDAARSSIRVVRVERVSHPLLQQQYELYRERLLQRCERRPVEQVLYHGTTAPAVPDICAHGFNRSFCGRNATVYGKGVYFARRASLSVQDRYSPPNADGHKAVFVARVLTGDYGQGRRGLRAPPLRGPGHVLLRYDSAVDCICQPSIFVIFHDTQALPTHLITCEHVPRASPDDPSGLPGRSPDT

Sequence of Protein mono-ADP-ribosyltransferase PARP10 (Homo sapiens, UniProt Q53GL7, L926G) (Q53GL7 whole entry L926G): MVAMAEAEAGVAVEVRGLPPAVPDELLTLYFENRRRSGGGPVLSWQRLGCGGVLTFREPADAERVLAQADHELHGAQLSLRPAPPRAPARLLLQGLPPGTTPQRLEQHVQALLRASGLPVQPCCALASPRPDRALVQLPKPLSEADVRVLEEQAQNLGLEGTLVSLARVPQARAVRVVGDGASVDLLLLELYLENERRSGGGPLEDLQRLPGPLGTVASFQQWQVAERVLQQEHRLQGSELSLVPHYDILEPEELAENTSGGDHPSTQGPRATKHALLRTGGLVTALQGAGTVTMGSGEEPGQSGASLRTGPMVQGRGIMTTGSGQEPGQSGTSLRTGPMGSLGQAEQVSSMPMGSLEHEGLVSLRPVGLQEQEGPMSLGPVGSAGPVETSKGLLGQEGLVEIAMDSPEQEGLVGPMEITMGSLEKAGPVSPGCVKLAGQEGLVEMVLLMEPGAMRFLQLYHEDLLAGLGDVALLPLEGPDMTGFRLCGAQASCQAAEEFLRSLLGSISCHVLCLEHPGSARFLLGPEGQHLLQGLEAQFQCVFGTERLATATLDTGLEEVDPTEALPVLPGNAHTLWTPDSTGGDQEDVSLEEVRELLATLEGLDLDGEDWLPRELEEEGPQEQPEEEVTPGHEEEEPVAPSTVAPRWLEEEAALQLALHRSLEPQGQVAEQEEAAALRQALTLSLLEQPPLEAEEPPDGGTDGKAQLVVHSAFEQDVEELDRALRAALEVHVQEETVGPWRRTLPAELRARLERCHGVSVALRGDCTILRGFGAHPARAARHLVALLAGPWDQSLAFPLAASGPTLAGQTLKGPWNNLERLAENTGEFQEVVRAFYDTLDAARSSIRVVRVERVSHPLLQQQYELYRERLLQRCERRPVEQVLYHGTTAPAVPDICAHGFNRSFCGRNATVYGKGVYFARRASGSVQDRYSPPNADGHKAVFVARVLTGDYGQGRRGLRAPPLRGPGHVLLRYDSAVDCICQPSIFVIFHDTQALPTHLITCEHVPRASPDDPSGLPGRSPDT
Sequence of Poly [ADP-ribose] polymerase 1 (P09874 whole entry): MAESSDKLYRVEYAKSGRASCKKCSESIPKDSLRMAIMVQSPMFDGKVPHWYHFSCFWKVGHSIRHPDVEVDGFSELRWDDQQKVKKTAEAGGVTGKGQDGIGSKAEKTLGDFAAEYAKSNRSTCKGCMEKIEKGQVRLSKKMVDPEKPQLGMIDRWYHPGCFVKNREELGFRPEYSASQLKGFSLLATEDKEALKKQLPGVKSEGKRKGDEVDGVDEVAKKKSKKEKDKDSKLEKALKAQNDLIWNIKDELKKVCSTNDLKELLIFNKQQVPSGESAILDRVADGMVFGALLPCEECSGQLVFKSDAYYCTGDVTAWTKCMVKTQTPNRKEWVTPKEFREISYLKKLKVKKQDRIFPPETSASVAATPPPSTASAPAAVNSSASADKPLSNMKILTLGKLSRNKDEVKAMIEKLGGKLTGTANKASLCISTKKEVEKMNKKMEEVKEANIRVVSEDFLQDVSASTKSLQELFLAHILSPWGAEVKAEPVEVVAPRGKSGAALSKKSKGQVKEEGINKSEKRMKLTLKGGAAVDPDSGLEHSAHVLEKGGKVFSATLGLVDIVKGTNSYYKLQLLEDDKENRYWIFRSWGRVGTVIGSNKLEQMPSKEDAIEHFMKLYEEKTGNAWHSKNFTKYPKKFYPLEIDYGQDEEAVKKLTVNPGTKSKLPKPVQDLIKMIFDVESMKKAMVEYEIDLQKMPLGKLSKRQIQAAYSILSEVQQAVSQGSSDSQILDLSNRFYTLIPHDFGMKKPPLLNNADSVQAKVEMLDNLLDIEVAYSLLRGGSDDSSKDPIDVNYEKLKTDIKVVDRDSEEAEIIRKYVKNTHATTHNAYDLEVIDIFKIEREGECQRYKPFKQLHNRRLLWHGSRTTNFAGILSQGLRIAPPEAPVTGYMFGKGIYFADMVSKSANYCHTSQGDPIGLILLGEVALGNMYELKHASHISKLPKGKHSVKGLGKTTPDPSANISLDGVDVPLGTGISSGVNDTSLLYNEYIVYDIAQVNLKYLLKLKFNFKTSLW

SMILES	IC50 [1]	IC50 [2]	IC50 [3]
O=C1NCCc2ccc(O)cc21	> 30 µM	–	–
COc1ccc2c(c1)C(=O)NCC2	172 µM	> 100 µM	> 100 µM
O=C1NCCc2ccc(C(F)(F)F)cc21	65.5 µM	> 100 µM	> 100 µM
O=C1NCCc2ccc(Br)cc21	8.6 µM	> 100 µM	> 100 µM
O=C1NCCc2ccc(Cl)cc21	16.2 µM	100 µM	> 100 µM
Cc1ccc2c(c1)C(=O)NCC2	112 µM	> 100 µM	> 100 µM

— ChEMBL document CHEMBL3627698, “Selective inhibition of PARP10 using a chemical genetics strategy” (Bioorg Med Chem Lett, 2015)
